In patent US20060276436A1, “Farnesyl dibenzodiazepinone formulation” (Ecopia BioSciences, Inc., priority 2005, published 2006):

How the values were obtained:
[1] = Pharmacokinetic study using Formulation D11 (IV, IP, SC) and Formulation C (PO); assay type: in vivo, Crl: CD1 mice
Protocol: Formulation D11, at a final concentration of 6 mg/ml of Compound 1 was used for IV, IP and SC bolus administration. […] Prior to dosing, animals (female Crl: CD1 mice; 6 weeks of age, 22-24 g) were weighed, randomly selected and assigned to the different treatment groups. Compound 1 was administered by the intravenous (IV), subcutaneous (SC), intraperitoneal (IP), or oral (PO) route to the assigned animals. The dosing volume of Compound 1 was 5 mL per kg body weight. Animals were anesthetized prior to bleeding with 5% isoflurane. Blood was collected into microtainer tubes containing the anticoagulant K2EDTA by cardiac puncture from each of 4 animals per bleeding timepoint (2 min, 5 min, 15 min, 30 min, 1 h, 2 h, 4 h and 8 h). Following collection, the samples were centrifuged and the plasma obtained from each sample was recovered and stored frozen (at approximately −80° C.) pending analysis. […] Samples were analysed by LC/MS/MS. Standard curve ranged from 25 to 2000 ng/mL with limit of quantitation (LOQ)≦25 ng/mL and limit of detection (LOD) of 10 ng/mL.
Plasma values of Compound 1 falling below the limit of quantitation (LOQ) were set to zero. Mean concentration values and standard deviation (SD) were calculated at each timepoints of the pharmacokinetic study (n=4 animals/timepoint). The following pharmacokinetic parameters were calculated: area under the plasma concentration versus time curve from time zero to the last measurable concentration time point (AUC0-t), area under the plasma concentration versus time curve extrapolated to infinity (AUCinf), maximum observed plasma concentration (Cmax), time of maximum plasma concentration (tmax), apparent first-order terminal elimination rate constant (kel), apparent first-order terminal elimination half-life will be calculated as 0.693/kel (t1/2). The systemic clearance (CL) of Compound 1 after intravenous administration was calculated using Dose/AUCinf. Pharmacokinetic parameters were calculated using Kinetica™ 4.1.1 (Innaphase Corporation, Philadelphia, Pa.).

[2] = In vivo toxicity of Compound 1 in rats; conditions: rat, single bolus intravenous administration, healthy rats
Text: The toxicity was due to the vehicle and was attributed to smaller size of infusion vessels, and concurrent catheter tract infection.

[3] = system: human glioma (U-87MG) tumor xenograft; assay: Human U-87 MG glioblastoma mice model, antitumor efficacy; assay type: in vivo; conditions: SC 30 mg/kg q1d×5 over 2 weeks
Protocol: Tumor growth was followed every other day by measuring tumor length (L) and width (W) using a calliper. Measurements were converted to tumor volumes (TV; mm^3) using the standard formula, TV=(L×W^2)/2. Tumor volume at day n was expressed as relative tumor volume (RTV) according to the following formula RTV=TVn/TV0, where TVn is the tumor volume at day n and TV0 is the tumor volume at day 0. The percentage of tumor growth inhibition (% TGI) was determined by 1−(mean RTV of treated group/mean RTV of control group)×100. […] Statistical analysis was calculated by the two-tailed unpaired t test using the Prism software. […]
The human U-87 MG (ATCC® no. HTB-14™) glioblastoma antitumor efficacy study was performed at INSERM U318 (Grenoble, France). […] On each dosing day, Compound 1 stock solutions (24 and 40 mg/mL in bulk Formulation B11) were diluted with sterile 5% dextrose in water (D5W) to prepare a dosing solution of 6 mg/mL of Compound 1 in ready-to-use Formulation D11 (5% ethanol, 5% PEG400, 15% polysorbate 80, and 75% D5W).
For the human glioblastoma antitumor efficacy study, female athymic (nu/nu) nude mice (6-7 weeks of age) were inoculated SC with 5×10^6 U-87MG cells (day 0). […] Tumor growth inhibition (TGI) was calculated on day 34 post tumor cell inoculation, at which time some animals from the vehicle control group had to be sacrificed due to tumor burden.

SMILES: CC(C)=CCC/C(C)=C/CC/C(C)=C/CN1C(=O)c2cccc(O)c2Nc2c(O)cc(O)cc21 [Compound 1, 10-farnesyl-4,6,8-trihydroxy-dibenzodiazepin-11-one]
- tissue distribution (in words) ([1]; IV and IP dosing 30 mg/kg, 30 min): well distributed
- tissue levels (in words) ([1]; SC dosing 30 mg/kg, 30 min, versus IP): significantly lower
- time plasma concentration maintained at therapeutically relevant levels ([1]; intraperitoneal and subcutaneous administrations, 30 mg/kg, Formulation D11): over 8 hours
- MTD [2]: 85 mg/kg
- tolerability of dose regimen [3]: well tolerated
